Patent US9399626B2, “2-thiopyrimidinones” (Pfizer Inc., priority 2011, dated 2016)
Structures can show the parent of a compound that is named as a salt.

Target: T1, MPO (purified from human polynuclear leukocytes) (Homo sapiens, UniProt P05164)
T1 construct: purified from human polynuclear leukocytes; purchased Calbiochem/EMD Biosciences; host or cells: human polynuclear leukocytes (natural source)
Assay: MPO Amplex Red Activity Assay
Format: biochemical
Details: Table 1, 2 μM H2O2, pH 7.4
How it was run: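 Potency is given as kinact/KI: kobs values from 600 s progress curves, minus the uninhibited rate, are fit against inhibitor concentration. Reactions use 2 μM H2O2, 30 μM Amplex Red, pH 7.4 phosphate buffer with NaCl, DTPA and 2% DMSO, started with […] human MPO. Readout is resorufin fluorescence, catalase background subtracted.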

T1 sequence (P05164 279-745 limits assumed): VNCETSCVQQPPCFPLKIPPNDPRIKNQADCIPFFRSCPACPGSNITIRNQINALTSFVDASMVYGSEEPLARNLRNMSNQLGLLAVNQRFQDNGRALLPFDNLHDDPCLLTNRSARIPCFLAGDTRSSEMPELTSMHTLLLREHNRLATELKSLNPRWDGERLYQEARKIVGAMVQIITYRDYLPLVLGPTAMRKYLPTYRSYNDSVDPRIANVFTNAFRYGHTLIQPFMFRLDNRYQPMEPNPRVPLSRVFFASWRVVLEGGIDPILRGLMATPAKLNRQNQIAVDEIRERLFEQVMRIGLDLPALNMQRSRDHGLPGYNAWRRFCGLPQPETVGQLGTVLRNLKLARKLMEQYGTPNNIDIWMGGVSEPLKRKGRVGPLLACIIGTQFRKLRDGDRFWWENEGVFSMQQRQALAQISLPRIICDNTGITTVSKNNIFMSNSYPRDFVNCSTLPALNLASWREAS
T1 sequence (P05164 165-273 limits assumed): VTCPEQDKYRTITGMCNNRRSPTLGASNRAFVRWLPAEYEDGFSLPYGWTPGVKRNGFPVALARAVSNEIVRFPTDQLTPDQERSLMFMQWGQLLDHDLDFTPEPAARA

Structure (SMILES) | MPO kinact/Ki
COCCn1c(-c2cccc(C)c2)cc(=O)[nH]c1=S [Example 283, 1-(2-methoxyethyl)-6-(3-methylphenyl)-2-thioxo-2,3-dihydropyrimidin-4(1H)-one] | 2790 1/s per M
COc1ccc(-c2cc(=O)[nH]c(=S)n2CC2CCN(C(=N)N)C2)c(OC)c1 (centres unmarked) [Example 259, 3-{[6-(2,4-dimethoxyphenyl)-4-oxo-2-thioxo-3,4-dihydropyrimidin-1(2H)-yl]methyl}pyrrolidine-1-carboximidamide trifluoroacetate] | 4000 1/s per M
COCCn1c(-c2cc(Cl)ccc2OC)cc(=O)[nH]c1=S [Example 333, 6-(5-chloro-2-methoxyphenyl)-1-(2-methoxyethyl)-2-thioxo-2,3-dihydropyrimidin-4(1H)-one] | 6100 1/s per M
COCCn1c(-c2cc(OC)ccc2OC)cc(=O)[nH]c1=S [Example 9, 6-(2,5-dimethoxyphenyl)-1-(2-methoxyethyl)-2-thioxo-2,3-dihydropyrimidin-4(1H)-one] | 15000 1/s per M
COc1ccccc1-c1cc(=O)[nH]c(=S)n1CCCN=C(N)N [Example 103, 2-{3-[6-(2-methoxyphenyl)-4-oxo-2-thioxo-3,4-dihydropyrimidin-1(2H)-yl]propyl} guanidine] | 41800 1/s per M
COCCn1c(-c2ccccc2OC(C)C)cc(=O)[nH]c1=S [Example 328, 6-(2-isopropoxyphenyl)-1-(2-methoxyethyl)-2-thioxo-2,3-dihydropyrimidin-4(1H)-one] | 4370 1/s per M
COc1ccc(-c2cc(=O)[nH]c(=S)n2C[C@H]2CCCN2)c(OC)c1 [Example 267, 6-(2,4-dimethoxyphenyl)-1-[(2R)-pyrrolidin-2-ylmethyl]-2-thioxo-2,3-dihydropyrimidin-4(1H)-one hydrochloride] | 3840 1/s per M
COc1ccc(Cl)cc1-c1cc(=O)[nH]c(=S)n1C[C@H]1CCCN1 [Example 122, 6-(5-chloro-2-methoxyphenyl)-1-[(2R)-pyrrolidin-2-ylmethyl]-2-thioxo-2,3-dihydropyrimidin-4(1H)-one hydrochloride] | 9310 1/s per M
O=c1cc(-c2ccccc2OC(F)(F)F)n(CCO)c(=S)[nH]1 [Example 186, 1-(2-hydroxyethyl)-2-thioxo-6-[2-(trifluoromethoxy)phenyl]-2,3-dihydropyrimidin-4(1H)-one] | 3930 1/s per M
NC(=O)Cn1c(-c2ccccc2OC(F)(F)F)cc(=O)[nH]c1=S [Example 208, 2-{4-oxo-2-thioxo-6-[2-(trifluoromethoxy)phenyl]-3,4-dihydropyrimidin-1(2H)-yl}acetamide] | 3760 1/s per M

Same assay, conditions: Table 1A, 2 μM H2O2, pH 7.4

Structure (SMILES) | MPO kinact/Ki
CSc1ccccc1-c1cc(=O)[nH]c(=S)n1CC(N)=O [Example 365, 2-{6-[2-(methylsulfanyl)phenyl]-4-oxo-2-thioxo-3,4-dihydropyrimidin-1(2H)yl}acetamide] | 9290 1/s per M
COc1ccc(-c2cc(=O)[nH]c(=S)n2CC(=O)NCCCN)c(OC)c1 [Example 442, N-(3-aminopropyl)-2-[6-(2,4-dimethoxyphenyl)-4-oxo-2-thioxo-3,4-dihydropyrimidin-1(2H)-yl]acetamide] | 12300 1/s per M
COC(=O)/N=C(/N)NCCCn1c(-c2cc(Cl)ccc2OC)cc(=O)[nH]c1=S [Example 350, Methyl[amino({3-[6-(5-chloro-2-methoxyphenyl)-4-oxo-2-thioxo-3,4-dihydropyrimidin-1(2H)-yl]propyl}amino)methylidene]carbamate] | 8740 1/s per M
COc1ccc(-c2cc(=O)[nH]c(=S)n2CC(=O)NCCNC(=O)[C@H](C)N)c(OC)c1 [Example 399, N-[2-({[6-(2,4-dimethoxyphenyl)-4-oxo-2-thioxo-3,4-dihydropyrimidin-1(2H)-yl]acetyl}amino)ethyl]-L-alaninamide] | 4860 1/s per M
